Laboratory results as given in patent US12668600B2 (Kumquat Biosciences Inc., priority 2023, dated 2026).

How the values were obtained:
Type in all cases: biochemical
KRAS G12D = molecular target: T1, KRAS G12D (Homo sapiens, UniProt P01116, G12D); experiment: HTRF KRAS-SOS1 interaction assay, KRAS G12D; settings: binned ≤2 μM / >2 μM, read-out: Inhibition of KRAS G12D (IC50)
T1 construct: made in house; host or cells: E. coli, e.g. BL21 (DE3)
Procedure, shortened: (§1)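 GST-tagged KRAS (WT or mutant) with anti-GST-Eu donor, mixed with His-hSOS1 and anti-6His-XL665 acceptor. Buffer ~5 mM HEPES pH 7.4, ~150 mM NaCl, ~1 mM DTT, 0.05% BSA, 0.0025% Igepal; incubated about 10 min or longer. HTRF 665/620 ratio, compounds in duplicate up to 10 μM, IC50 derived.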

KRAS G12S = molecular target: T2, KRAS G12S (Homo sapiens, UniProt P01116, G12S); experiment: HTRF KRAS-SOS1 interaction assay, KRAS G12S; settings: binned ≤2 μM / >2 μM, read-out: Inhibition of KRAS G12S (IC50)
T2 construct: made in house; host or cells: E. coli, e.g. BL21 (DE3)
T2 sequence (P01116 1-188 isoform P01116-2 G12S): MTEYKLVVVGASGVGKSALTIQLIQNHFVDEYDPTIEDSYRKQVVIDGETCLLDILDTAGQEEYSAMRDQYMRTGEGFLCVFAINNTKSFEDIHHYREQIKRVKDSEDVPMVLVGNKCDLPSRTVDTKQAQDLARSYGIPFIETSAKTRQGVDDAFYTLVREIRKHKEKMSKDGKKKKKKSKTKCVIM
Procedure, shortened: as §1

KRAS WT = molecular target: T3, KRAS WT (Homo sapiens, UniProt P01116); experiment: HTRF KRAS-SOS1 interaction assay, wildtype KRAS; settings: binned ≤2 μM / >2 μM, read-out: Inhibition of KRAS WT (IC50)
T3 construct: made in house; host or cells: E. coli, e.g. BL21 (DE3)
T3 sequence (P01116 1-188 isoform P01116-2): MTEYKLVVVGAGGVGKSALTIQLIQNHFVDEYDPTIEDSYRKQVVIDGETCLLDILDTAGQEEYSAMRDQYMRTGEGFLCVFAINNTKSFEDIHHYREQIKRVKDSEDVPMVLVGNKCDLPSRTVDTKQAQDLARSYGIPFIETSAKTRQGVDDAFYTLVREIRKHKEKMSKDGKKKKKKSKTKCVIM
Procedure, shortened: as §1

KRAS G12V = molecular target: T4, KRAS G12V (Homo sapiens, UniProt P01116, G12V); experiment: HTRF KRAS-SOS1 interaction assay, KRAS G12V; settings: binned ≤2 μM / >2 μM, read-out: Inhibition of KRAS G12V (IC50)
T4 construct: made in house; host or cells: E. coli, e.g. BL21 (DE3)
T4 sequence (P01116 1-188 isoform P01116-2 G12V): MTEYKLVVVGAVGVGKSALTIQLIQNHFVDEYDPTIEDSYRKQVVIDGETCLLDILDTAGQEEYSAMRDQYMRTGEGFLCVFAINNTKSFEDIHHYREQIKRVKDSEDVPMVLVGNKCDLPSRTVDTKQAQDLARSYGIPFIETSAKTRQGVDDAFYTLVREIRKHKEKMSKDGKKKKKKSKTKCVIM
Procedure, shortened: as §1

Measured: IC50

T1 sequence (P01116 1-188 isoform P01116-2 G12D): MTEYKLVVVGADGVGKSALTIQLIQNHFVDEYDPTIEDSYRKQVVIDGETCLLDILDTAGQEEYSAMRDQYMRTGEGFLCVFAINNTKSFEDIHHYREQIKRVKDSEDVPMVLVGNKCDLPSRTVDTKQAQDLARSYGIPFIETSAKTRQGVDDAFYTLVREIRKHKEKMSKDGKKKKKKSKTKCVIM

C[C@H](c1cccnc1N)N1CCOc2c(Cl)c(-c3cccc4sc(N)c(C#N)c34)c(F)c3nc(OC[C@@H]4CCCN4C)nc1c23 [Compound 612, 2-amino-4-(4-((R)-1-(2-aminopyridin-3-yl)ethyl)-8-chloro-10-fluoro-2-(((S)-1-methylpyrrolidin-2-yl)methoxy)-5,6-dihydro-4H-[1,4]oxazepino[5,6,7-de]quinazolin-9-yl)benzo[b]thiophene-3-carbonitrile]
≤ 2000 nM: all assays above

N#Cc1c(N)sc2c(F)ccc(-c3c(C(F)(F)F)c4c5c(nc(OC[C@@]67CCCN6C[C@@]6(CC6(F)F)C7)nc5c3F)N([C@H](CCC(F)(F)F)c3cc(F)cnc3N)CCO4)c12 [Compound 617, 2-amino-4-(4-((R)-1-(2-amino-5-fluoropyridin-3-yl)-4,4,4-trifluorobutyl)-2-(((1S,7a′S)-2,2-difluorodihydro-1′H,3′H-spiro[cyclopropane-1,2′-pyrrolizin]-7a′(5′H)-yl)methoxy)-10-fluoro-8-(trifluoromethyl)-5,6-dihydro-4H-[1,4]oxazepino[5,6,7-de]quinazolin-9-yl)-7-fluorobenzo[b]thiophene-3-carbonitrile]
≤ 2000 nM: all assays above

C=C1CN2CCC[C@@]2(COc2nc3c4c(c(C(F)(F)F)c(-c5ccc(F)c6sc(N)c(C#N)c56)c(F)c4n2)OCCN3[C@H](C)c2cc(F)cnc2N)C1 [Compound 620, 2-amino-4-(4-((R)-1-(2-amino-5-fluoropyridin-3-yl)ethyl)-10-fluoro-2-(((S)-2-methylenetetrahydro-1H-pyrrolizin-7a(5H)-yl)methoxy)-8-(trifluoromethyl)-5,6-dihydro-4H-[1,4]oxazepino[5,6,7-de]quinazolin-9-yl)-7-fluorobenzo[b]thiophene-3-carbonitrile]
≤ 2000 nM: all assays above

C=C1CN2CCC[C@@]2(COc2nc3c4c(c(C(F)(F)F)c(-c5ccc(F)c6sc(N)c(C#N)c56)c(F)c4n2)OCCN3[C@H](C)c2cccnc2N)C1 [Compound 621, 2-amino-4-(4-((R)-1-(2-aminopyridin-3-yl)ethyl)-10-fluoro-2-(((S)-2-methylenetetrahydro-1H-pyrrolizin-7a(5H)-yl)methoxy)-8-(trifluoromethyl)-5,6-dihydro-4H-[1,4]oxazepino[5,6,7-de]quinazolin-9-yl)-7-fluorobenzo[b]thiophene-3-carbonitrile]
≤ 2000 nM: all assays above

CO[C@H]1CCN(C)[C@@H]1[C@H](C)Oc1nc2c3c(c(C(F)(F)F)c(-c4ccc(F)c5sc(N)c(C#N)c45)c(F)c3n1)OCCN2[C@H](C)c1cc(F)cnc1N [Compound 630, 2-amino-4-(4-((R)-1-(2-amino-5-fluoropyridin-3-yl)ethyl)-10-fluoro-2-((S)-1-((2R,3S)-3-methoxy-1-methylpyrrolidin-2-yl)ethoxy)-8-(trifluoromethyl)-5,6-dihydro-4H-[1,4]oxazepino[5,6,7-de]quinazolin-9-yl)-7-fluorobenzo[b]thiophene-3-carbonitrile]
≤ 2000 nM: all assays above

N#Cc1c(N)sc2c(F)ccc(-c3c(C(F)(F)F)c4c5c(nc(OC[C@@]67CCCN6C[C@H](F)C7)nc5c3F)N([C@H](CC3CCOCC3)c3cc(F)cnc3N)CCO4)c12 [Compound 634, 2-amino-4-(4-((R)-1-(2-amino-5-fluoropyridin-3-yl)-2-(tetrahydro-2H-pyran-4-yl)ethyl)-10-fluoro-2-(((2R,7aS)-2-fluorotetrahydro-1H-pyrrolizin-7a(5H)-yl)methoxy)-8-(trifluoromethyl)-5,6-dihydro-4H-[1,4]oxazepino[5,6,7-de]quinazolin-9-yl)-7-fluorobenzo[b]thiophene-3-carbonitrile]
≤ 2000 nM: all assays above

N#Cc1c(N)sc2c(F)ccc(-c3c(C(F)(F)F)c4c5c(nc(OCC6(CN7CCC8(CC7)CC8(F)F)CC6)nc5c3F)N([C@H](CCC(F)(F)F)c3cccnc3N)CCO4)c12 [Compound 637, 2-amino-4-(4-((R)-1-(2-aminopyridin-3-yl)-4,4,4-trifluorobutyl)-2-((1-((1,1-difluoro-6-azaspiro[2.5]octan-6-yl)methyl)cyclopropyl)methoxy)-10-fluoro-8-(trifluoromethyl)-5,6-dihydro-4H-[1,4]oxazepino[5,6,7-de]quinazolin-9-yl)-7-fluorobenzo[b]thiophene-3-carbonitrile]
≤ 2000 nM: all assays above

C=CC(F)(F)[C@H](c1cccnc1N)N1CCOc2c(Cl)c(-c3ccc(F)c4sc(N)c(C#N)c34)c(F)c3nc(OC[C@@]45CCCN4C[C@H](F)C5)nc1c23 [Compound 639, 2-amino-4-(4-((S)-1-(2-aminopyridin-3-yl)-2,2-difluorobut-3-en-1-yl)-8-chloro-10-fluoro-2-(((2R,7aS)-2-fluorotetrahydro-1H-pyrrolizin-7a(5H)-yl)methoxy)-5,6-dihydro-4H-[1,4]oxazepino[5,6,7-de]quinazolin-9-yl)-7-fluorobenzo[b]thiophene-3-carbonitrile]
≤ 2000 nM: all assays above

N#Cc1c(N)sc2c(F)ccc(-c3c(C(F)(F)F)c4c5c(nc(OC[C@@]67CCCN6CC(=C(F)F)C7)nc5c3F)N([C@H](CCC(F)(F)F)c3cc(F)cnc3N)CCO4)c12 [Compound 640, 2-amino-4-(4-((R)-1-(2-amino-5-fluoropyridin-3-yl)-4,4,4-trifluorobutyl)-2-(((S)-2-(difluoromethylene)tetrahydro-1H-pyrrolizin-7a(5H)-yl)methoxy)-10-fluoro-8-(trifluoromethyl)-5,6-dihydro-4H-[1,4]oxazepino[5,6,7-de]quinazolin-9-yl)-7-fluorobenzo[b]thiophene-3-carbonitrile]
≤ 2000 nM: all assays above

C[C@H](c1cc(F)cnc1N)N1CCOc2c(C(F)(F)F)c(-c3ccc(F)c4sc(N)c(C#N)c34)c(F)c3nc(OCC4(CN5CC[C@@H](F)C5)CC4)nc1c23 [Compound 644, 2-amino-4-(4-((R)-1-(2-amino-5-fluoropyridin-3-yl)ethyl)-10-fluoro-2-((1-(((R)-3-fluoropyrrolidin-1-yl)methyl)cyclopropyl)methoxy)-8-(trifluoromethyl)-5,6-dihydro-4H-[1,4]oxazepino[5,6,7-de]quinazolin-9-yl)-7-fluorobenzo[b]thiophene-3-carbonitrile]
≤ 2000 nM: all assays above
